Measured values as given in PubChem BioAssay AID2060905 (Molecular Pharmacology Branch, DTP, NCI, 2025).
Several values for one entry are separate records, joined by “and”; a condition that tells them apart may be missing. Equal values may be shown once.

Test system: 282377-053-R-J1-PDC complex spheroid viability
Test: Anticancer human tumor 282377-053-R-J1-PDC patient-derived colon adenocarcinoma cell line growth inhibition [RAS]
Conditions: for viability, T/C: stronger effect = lower value
Description: RAS pathway inhibitors in Combinations in Complex Spheroids
A high-throughput screen of multi-cell type tumor spheroids was designed to identify active combinations of RAS pathway inhibitors and targeted small molecules. Complex spheroids include a stromal component modeled by human endothelial cells (HUVEC) and fibroblasts modeled by human mesenchymal stem cells (MSCs). The concentration ranges selected for each drug and investigational agent were based upon clinically achievable concentrations if the clinical Cmax of the agent was known.
Compounds. The drugs and investigational agents: abemaciclib (NSC768073), cobimetinib (NSC768068), divarasib (GDC6063, NSC841802), docetaxel (NSC628503), GDC-1971 (RLY-1971, NSC841576), gemcitabine (NSC613327), inavolisib (NSC800729), ipatasertib (NSC767898), KB-0742 (NSC834161), MRTX-1133 (NSC836407), osimertinib (NSC779217), RMC-4630 (NSC839698), RMC-6236 (NSC851965), RMC-6291 (NSC852671), Ro-3306 (NSC812927), sapanisertib (NSC764658), SN-38 (NSC673596), staurosporine (NSC755774), SY5609 (NSC837396), and tovorafenib (DAY101, NSC766906), were obtained from the National Cancer Institute (NCI) Developmental Therapeutics Program Chemical Repository. The FDA-approved anticancer drug set is available from the NCI Developmental Therapeutics Program. […] The stock solutions were prepared in dimethyl sulfoxide (DMSO, Sigma-Aldrich, St. Louis, MO, cat. D2650) at 800-fold the tested concentration and stored at -70 degrees C prior to their use. All drugs and investigational agents were tested over a range starting from a high concentration at or near the clinical Cmax and decreasing in half-log increments. If the clinical Cmax for an agent had not been determined, the highest concentration tested was 10 microM.
Cell Culture. All cells were maintained in an incubator at 37 degrees C and 5% CO2 with 95% humidity. The PDC lines were cultured according to standard operating procedures established by the NCI PDMR. All PDCs were thawed and cultured in Matrigel-coated flasks prepared with a working solution of 1X Ham's F-12 nutrient mix, without supplementation (Invitrogen, Waltham, MA, cat. 11765054), 100 U/mL penicillin-streptomycin (Invitrogen, cat. 15140122), and 2.5% Matrigel (Corning Inc., Corning, NY, cat. 354248) for the first three passages. The 362531-283-R-J2-PDC and 782815-120-R-J1-PDC lines were cultured in 6C/Colon 1B media, which includes advanced DMEM/F-12 (Thermo Fisher Scientific, cat. 12634028), 10 mM HEPES (Thermo Fisher Scientific, cat. 15630080), 1X GlutaMAX supplement (Thermo Fisher Scientific, cat. 35050061), 0.1 mg/mL primocin (InvivoGen, San Diego, CA, cat. ant-pm-2), 10% defined fetal bovine serum, heat inactivated (HyClone Laboratories Inc., Logan, UT, cat. SH30070.03HI), 50% L-WRN conditioned media (ATCC, cat. CRL-3276), 1.25 mM N-Acetyl-L-cysteine (Sigma-Aldrich, cat. A9165), 10 mM nicotinamide (Sigma-Aldrich, cat. N0636), 1X B-27 supplement (Thermo Fisher Scientific, cat. 17504044), 1X N-2 supplement (Thermo Fisher Scientific, cat. 17502048), 50 ng/mL human EGF (Thermo Fisher Scientific, cat. PHG0311), and 10 microM Y-27632 dihydrochloride (Tocris Bioscience, cat. 1254). The K12877-001-R-J1-PDC line was cultured in 6I media, which includes all 6C/Colon 1B media plus 10 ng/mL human FGF-10 (PeproTech, cat. 100-26), 1 ng/mL human FGF-2 (PeproTech, cat. 100-18B), 1 µM prostaglandin E2 (Tocris Bioscience, cat. 2296), […] hydrocortisone (Sigma-Aldrich, cat. H4001), and […] bovine insulin (Sigma-Aldrich, cat. I6634). The K86415-001-R-J1-PDC line was cultured in 6D media, which includes all 6C/Colon 1B media components minus the L-WRN conditioned media. The 485176-168-R4-J1-PDC was cultured in PANC media, which includes all 6C/Colon 1B media plus 100 ng/mL human FGF-10 (PeproTech, cat. 100-26), 500 nM SB-431542 (Selleckchem, cat. S1067), and 10 nM gastrin (Tocris Bioscience, cat. 3006). […]

[1] = compound alone, run of 05/20/2024
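Also: spheroids exposed to agents for seven days before readout.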
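For viability, T/C in this document: luminescence viability as percent of DMSO vehicle control wells.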

SMILES	IC50 (curve of compound)	viability, T/C (compound 0.0316 µM)	viability, T/C (compound 0.316 µM)	viability, T/C (compound 0.01 µM)	viability, T/C (compound 1 µM)	viability, T/C (compound 0.00316 µM)	further results
C=CC(=O)Nc1cc(Nc2nccc(-c3cn(C)c4ccccc34)n2)c(OC)cc1N(C)CCN(C)C	> 1000 nM	91.6% [middle of 4 runs]	–	98.4% [middle of 4 runs]	99.8% [middle of 4 runs]	–	–
CC(C)n1nc(-c2ccc3oc(N)nc3c2)c2c(N)ncnc21	> 100 nM	74.9% [middle of 4 runs]	–	87.2% [middle of 4 runs]	–	90.7% [middle of 4 runs]	viability, T/C (compound 0.000316 µM): 91.6% [middle of 4 runs]; viability, T/C (compound 0.001 µM): 112% and 102% (2×) and 89.9%; viability, T/C (compound 0.1 µM): 51.8% [middle of 4 runs]
CC(Nc1ccc2c(c1)OCCn1cc(N3C(=O)OCC3C(F)F)nc1-2)C(N)=O (stereo not drawn)	> 10000 nM	94% [middle of 4 runs]	85.7% [middle of 4 runs]	–	87.3% [middle of 4 runs]	–	viability, T/C (compound 3.16 µM): 93.8% [middle of 4 runs]; viability, T/C (compound 10 µM): 84.6% [middle of 4 runs]
CCc1c2c(nc3ccc(O)cc13)-c1cc3c(c(=O)n1C2)COC(=O)[C@]3(O)CC	> 300 nM	–	–	–	–	–	viability, T/C (compound 0.000949 µM): 106% [middle of 4 runs]; viability, T/C (compound 0.003 µM): 107% (2×) and 119% and 122%
CCn1c(-c2cc(N3CCN(C)CC3)cnc2C(C)OC)c2c3cc(ccc31)-c1csc(n1)CC(NC(=O)C1CC1C)C(=O)N1CCCC(N1)C(=O)OCC(C)(C)C2 (stereo not drawn)	–	–	–	–	–	–	viability, T/C (compound 0.003 µM): 95.7% [middle of 8 runs]; viability, T/C (compound 0.00949 µM): 98.4% [middle of 8 runs]; viability, T/C (compound 0.0949 µM): 105% [middle of 8 runs]; IC50 [1]: > 300 nM
CCn1c(-c2cccnc2C(C)OC)c2c3cc(ccc31)N1CCOC(CC(NC(=O)C(C(C)C)N(C)C(=O)C3(F)CCN(C(=O)C#CC(C)(C)N(C)C)CC3)C(=O)N3CCCC(N3)C(=O)OCC(C)(C)C2)C1 (stereo not drawn)	–	–	–	–	–	–	viability, T/C (compound 0.000949 µM): 98.8% [middle of 8 runs]; viability, T/C (compound 0.00949 µM): 104% [middle of 8 runs]; viability, T/C (compound 0.03 µM): 102% [middle of 8 runs]; viability, T/C (compound 0.0949 µM): 102% [middle of 8 runs]; viability, T/C (compound 0.3 µM): 102% [middle of 8 runs]; IC50 [1]: > 300 nM
Nc1ccn(C2OC(CO)C(O)C2(F)F)c(=O)n1 (stereo not drawn)	> 1000 nM and 221 nM and 274 nM	–	–	101% [middle of 4 runs]	–	94.8% [middle of 4 runs]	–

Further lines, with some results ahead:

IC50 (curve of compound)	SMILES	viability, T/C (compound 0.0316 µM)	viability, T/C (compound 0.316 µM)	viability, T/C (compound 0.01 µM)	viability, T/C (compound 1 µM)	viability, T/C (compound 0.00316 µM)	further results
> 1000 nM	C=CC(=O)N1CCN(c2nc(OCC3CCCN3C)nc3c(F)c(-c4nc(N)cc(C)c4C(F)(F)F)c(Cl)cc23)C(C)C1 (stereo not drawn)	105% [middle of 12 runs]	100% [middle of 12 runs]	–	–	–	IC50 (compound alone, run of 06/10/2024): > 1000 nM
> 10000 nM	CC(C)NCC(C(=O)N1CCN(c2ncnc3c2C(C)CC3O)CC1)c1ccc(Cl)cc1 (stereo not drawn)	95.3% [middle of 4 runs]	–	–	94.8% [middle of 4 runs]	–	viability, T/C (compound 3.16 µM): 90.4% [middle of 4 runs]; viability, T/C (compound 10 µM): 80.6% [middle of 4 runs]
> 300 nM	CC1(C)CCC(Nc2ncc(C(F)(F)F)c(-c3c[nH]c4c(P(C)(C)=O)c(C#N)ccc34)n2)CN1 (stereo not drawn)	–	–	–	–	–	viability, T/C (compound 0.003 µM): 102% [middle of 4 runs]; viability, T/C (compound 0.0949 µM): 74.2% [middle of 4 runs]; viability, T/C (compound 0.3 µM): 75.7% [middle of 4 runs]
> 1000 nM	CCN1CCN(Cc2ccc(Nc3ncc(F)c(-c4cc(F)c5nc(C)n(C(C)C)c5c4)n3)nc2)CC1	–	121% and 132% (2×) and 151%	107% [middle of 4 runs]	178% [middle of 4 runs]	105% [middle of 4 runs]	–
> 10000 nM	C[C@@H](NC(=O)c1ncnc(N)c1Cl)c1ncc(C(=O)Nc2cc(C(F)(F)F)c(Cl)cn2)s1	92.9% [middle of 4 runs]	92.8% [middle of 4 runs]	–	94.9% [middle of 4 runs]	–	viability, T/C (compound 0.1 µM): 94.9% [middle of 4 runs]; viability, T/C (compound 3.16 µM): 81.1% [middle of 4 runs]; viability, T/C (compound 10 µM): 72.1% [middle of 4 runs]
79.8 nM [middle of 4 runs]	O=C(c1ccc(F)c(F)c1Nc1ccc(I)cc1F)N1CC(O)([C@@H]2CCCCN2)C1	–	28.1% [middle of 4 runs]	–	20.8% [middle of 4 runs]	75.2% [middle of 4 runs]	viability, T/C (compound 0.1 µM): 53.5% [middle of 4 runs]
